{"source": "patent US20220259172A1", "about": "“CHEMICAL INHIBITORS OF ID PROTEINS FOR THE TREATMENT OF CANCER AND OTHER DISEASES” (Universität Heidelberg, priority 2019, published 2022)", "test_system": "HUVEC spheroids", "assay": "Sprouting from HUVEC spheroids in collagen", "assay_type": "cell-based, Human", "details": "X6632 10 μM; 50 ng/ml hVEGF-A; 24 h; collagen type I", "procedure": "HUVECs or LECs were resuspended in endothelial cell growth medium containing 20% methylcellulose at 1.6×10^4 cells per millilitre. Twenty-five microliters of cell suspension were pipetted as drops on non-adherent plastic plates, which were then inverted to form hanging drop cultures. Plates were incubated for 24 h at 37° C. Spheroids were harvested, then embedded in collagen type I (2 mg/ml) containing 0.5% methylcellulose. After polymerization, gels were cultivated with endothelial cell growth medium containing 50 ng/ml hVEGF-A in the presence or absence of X6632 (10 μM), or DMSO as a solvent control. Sprouting was assessed after cultivation for 24 h using microscope-based image acquisition. Representative images are shown.\nTo determine whether this is the case, the impact of […] on angiogenic and lymphangiogenic sprouting from endothelial cell spheriods was investigated. To this end, HUVECs and LECs were grown as spheriods in hanging drop cultures. The spheroids were then embedded in collagen. Sprouting from the spheroids in the presence and absence of X6632 was monitored using microscope-based image analysis.", "data": [{"smiles": "CCCCc1cc2c(O)cc(C3(CCCC)CCCCC3)cc2oc1=O", "note": "[X6632, 7-(1-Butylcyclohexyl)-5-hydroxy-3-butyl-2H-chromen-2-one]", "values": [{"measurement": "Sprouting from HUVEC spheroids", "value": "substantially inhibited"}]}]}
